Values after ≈ are worked out from the molar mass of the structure shown. Like-named read-outs stand apart in the source and are kept apart here.
Key:
[1] = Caco-2 bidirectional permeability assay; type: in vitro ADME, human; conditions: human, Caco-2; for efflux ratio at 2 h: Re = (Papp B→A)/(Papp A→B); for Papp A→B at 2 h: apical (pH 6.5) to basolateral (pH 7.4); for Papp A→B at 2 h / Papp B→A at 2 h: two hours; for Papp B→A at 2 h: basolateral to apical
Method: The Caco-2 bidirectional permeability assay was conducted as described in previous reports[29],[30],[41],[42]. The Caco-2 cell line is similar to human enterocytes and expresses P-glycoprotein and other relevant metabolic enzymes that affect absorption of orally-administered xenobiotics across the intestinal mucosa[34],[43],[44]. Caco-2 cells were grown in tissue culture flasks, trypsinized (by rinsing cells with phosphate-buffered saline and then treating with trypsin-EDTA for 5–10 minutes at 37 °C with 5% CO2 until cells detached), suspended in Dulbecco’s Modified Eagle Medium with 10% fetal bovine serum, 1% nonessential amino acids and penicillin-streptomycin, and then seeded onto wells of a Millipore 96-well Caco-2 plate. Cells were cultured at 37 °C with 5% CO2 until confluent (approximately three weeks) and media was changed at relevant time points. For Apical to Basolateral (A → B) permeability, the test article was added to the apical (A) compartment and the amount of permeation (Papp, as calculated below) to the basolateral (B) compartment was determined; for Basolateral to Apical (B → A) permeability, the test article was added to the B compartment and the amount of permeation to the A compartment was determined. […] Caco-2 cells were incubated with these buffers for two hours, and the receiver side buffer was removed for analysis by LC/MS/MS. To verify the tight junctions and integrity of Caco-2 cell monolayers, aliquots of the cell buffers were analyzed by fluorescence (Lucifer yellow transport ≤ 2%). Any deviations from control values are reported. Data are expressed as permeability (Papp) = (dQ/dt)/(C0A) where dQ/dt is the rate of permeation, C0 is the initial concentration of test agent, and A is the area of the monolayer.

[2] = tested on: human ileocecal colorectal adenocarcinoma cell line (HRT-18); test: Cytotoxicity, MTS assay, HRT-18 cells; type: cell-based; conditions: 32 µg mL^−1, 2 hours
Method: Briefly, ~2 × 10^4 cells suspended in 100 µL of RPMI-1640 supplemented with 10% horse serum were seeded in a 96-well plate and incubated at 37 °C with 5% CO2. The cells were cultured for 24 hours until reaching ~90% confluency. The cells were further incubated with the aforementioned concentrations of the compounds for 2 hours. Afterwards, culture media were discarded and the cells in each well were washed with PBS and 100 µL of cell culture media were added prior to addition of the assay reagent MTS 3-(4,5-dimethylthiazol-2-yl)-5-(3-carboxymethoxyphenyl)-2-(4-sulfophenyl)-2H-tetrazolium) (Promega). The plates were incubated for 4 hours at 37 °C in a humidified 5% CO2 atmosphere. The absorbance was recorded at 490 nm and the corrected absorbance readings (actual absorbance readings for each treatment subtracted from background absorbance) were taken using a kinetic ELISA microplate reader (SpectraMax i3x, Molecular Devices, Sunnyvale, CA, USA). The quantity of viable cells after treatment with each compound was expressed as a percentage of the control, DMSO. Asterisk (*) denotes a significant difference from the DMSO-treated cells using 2-way analysis of variance (ANOVA) followed by Dunnett’s pairwise comparison.

[3] = tested on: vancomycin-resistant and vancomycin-susceptible strains of Enterococcus; test: Broth microdilution MIC against Enterococcus strains (E. faecalis and E. faecium, summary in text); type: cell-based; conditions: all E. faecalis and E. faecium strains tested, vancomycin-resistant and -sensitive
[4] = tested on: E. faecium; test: Broth microdilution MIC against E. faecium strains; type: cell-based; conditions: Enterococcus faecium, read-out: Minimum inhibitory concentration
[5] = tested on: E. faecalis; test: Broth microdilution MIC against E. faecalis strains; type: cell-based; conditions: Enterococcus faecalis, read-out: Minimum inhibitory concentration
[6] = tested on: Clostridium difficile; test: Broth microdilution MIC against Clostridium difficile strains; type: cell-based; conditions: Clostridioides difficile
Method: The broth microdilution assay was utilized following the Clinical and Laboratory Standards Institute (CLSI) guidelines with slight modifications. Briefly, C. difficile strains were grown on anaerobic blood agar plates (Becton Dickinson, BD) and suspended in brain heart infusion supplemented broth (Brain heart infusion medium, BD, supplemented with yeast extract, L-cysteine, Vitamin K1 and Hemin, Sigma) to achieve a bacterial concentration of ~10^5 CFU/ml. The bacterial suspension was seeded in 96-well plates containing drugs/compounds, in duplicate, at the required concentration. Plates were then incubated at 37 °C anaerobically for 48 hours. MICs reported are the lowest concentration of each agent that inhibited the visual growth of bacteria.

Question: Which results are given for `CNC(=C[N+](=O)[O-])NCCSCc1ccc(CN(C)C)o1` [Ranitidine]?
Answer: efflux ratio at 2 h [1]: 5.18; Papp A→B at 2 h [1]: 0.186 ×10⁻⁶ cm/s; Papp B→A at 2 h [1]: 0.942 ×10⁻⁶ cm/s

Question: For `CCCCCCCCN(Cc1cccc2ccccc12)C(=O)[C@@H](N)CCCCN` [NCK-8], which “toxicity to HRT-18 cells” value [2] is on record?
Answer: The value was “survived”.

Question: And the MIC [3]?
Answer: The MIC was 8 to 32 µg/mL (≈ 20.1 to 80.5 µM).

Question: And the MIC ([4]; E. faecium E417 (vancomycin-resistant))?
Answer: Its MIC is 8 µg/mL (≈ 20.1 µM).

Question: What about the MIC ([4]; E. faecium E1071) of the same compound?
Answer: Its MIC is 16 µg/mL (≈ 40.2 µM).

Question: What about the MIC ([4]; E. faecium UAA714) of the same compound?
Answer: The MIC was 16 µg/mL (≈ 40.2 µM).

Question: What about the MIC ([5]; E. faecalis B3196) of the same compound?
Answer: Its MIC is 16 µg/mL (≈ 40.2 µM).

Question: And the MIC ([5]; E. faecalis B3286)?
Answer: Its MIC is 32 µg/mL (≈ 80.5 µM).

Question: And the MIC ([5]; E. faecalis B3336)?
Answer: The MIC was 16 µg/mL (≈ 40.2 µM).

Question: And the MIC ([5]; E. faecalis SF24397)?
Answer: The MIC was 16 µg/mL (≈ 40.2 µM).

Question: And the MIC ([5]; E. faecalis SF28073 (vancomycin-resistant))?
Answer: Its MIC is 16 µg/mL (≈ 40.2 µM).

Question: And the MIC ([6]; C. difficile Isolate 1 (NR-13427), read-out: Minimum inhibitory concentration)?
Answer: Its MIC is 8 µg/mL (≈ 20.1 µM).

Question: And the MIC ([6]; C. difficile Isolate 2 (NR-13428), read-out: Minimum inhibitory concentration)?
Answer: The MIC was 8 µg/mL (≈ 20.1 µM).

Question: And the MIC ([6]; C. difficile Isolate 4 (NR-13430), read-out: Minimum inhibitory concentration)?
Answer: Its MIC is 8 µg/mL (≈ 20.1 µM).

Question: What about the MIC ([6]; C. difficile Isolate 5 (NR-13431), read-out: Minimum inhibitory concentration) of the same compound?
Answer: The MIC was 2 µg/mL (≈ 5.03 µM).

Question: What about the MIC ([6]; C. difficile Isolate 6 (NR-13432), read-out: Minimum inhibitory concentration) of the same compound?
Answer: Its MIC is 8 µg/mL (≈ 20.1 µM).

Question: What about the MIC ([6]; C. difficile Isolate 9 (NR-13435), read-out: Minimum inhibitory concentration) of the same compound?
Answer: Its MIC is 4 µg/mL (≈ 10.1 µM).

Question: What about the MIC ([6]; C. difficile Isolate 10 (NR-13436), read-out: Minimum inhibitory concentration) of the same compound?
Answer: The MIC was 8 µg/mL (≈ 20.1 µM).

Question: What about the MIC ([6]; C. difficile P2 (NR-32883), read-out: Minimum inhibitory concentration) of the same compound?
Answer: Its MIC is 4 µg/mL (≈ 10.1 µM).

Question: What about the MIC ([6]; C. difficile P4 (NR-32889), read-out: Minimum inhibitory concentration) of the same compound?
Answer: Its MIC is 8 µg/mL (≈ 20.1 µM).

Question: What about the MIC ([6]; C. difficile P8 (NR-32888), read-out: Minimum inhibitory concentration) of the same compound?
Answer: The MIC was 8 µg/mL (≈ 20.1 µM).

Question: What about the MIC ([6]; C. difficile P13 (NR-32891), read-out: Minimum inhibitory concentration) of the same compound?
Answer: Its MIC is 8 µg/mL (≈ 20.1 µM).

Question: What about the MIC ([6]; C. difficile P15 (NR-32892), read-out: Minimum inhibitory concentration) of the same compound?
Answer: Its MIC is 8 µg/mL (≈ 20.1 µM).

Question: And the MIC ([6]; C. difficile P20 (NR-32896), read-out: Minimum inhibitory concentration)?
Answer: Its MIC is 8 µg/mL (≈ 20.1 µM).

Question: What about the MIC ([6]; C. difficile P21 (NR-32897), read-out: Minimum inhibitory concentration) of the same compound?
Answer: Its MIC is 4 µg/mL (≈ 10.1 µM).

Question: What about the MIC ([6]; C. difficile P29 (NR-32903), read-out: Minimum inhibitory concentration) of the same compound?
Answer: Its MIC is 8 µg/mL (≈ 20.1 µM).

Question: And the MIC ([6]; across all tested strains of C. difficile)?
Answer: Its MIC is 2 to 8 µg/mL (≈ 5.03 to 20.1 µM).

Question: For `CC(=O)CC(c1ccccc1)c1c(O)c2ccccc2oc1=O` (centres unmarked) [Warfarin], which efflux ratio at 2 h [1] is on record?
Answer: The efflux ratio at 2 h was 1.54.

Question: And the Papp A→B at 2 h [1]?
Answer: Its Papp A→B at 2 h is 12.7 ×10⁻⁶ cm/s.

Question: What about the Papp B→A at 2 h [1] of the same compound?
Answer: Its Papp B→A at 2 h is 19.6 ×10⁻⁶ cm/s.

Source: publication PMC7101335, “Aryl-alkyl-lysines: Novel agents for treatment of C. difficile infection” (Scientific Reports, 2020)
